Source: ChEMBL document CHEMBL1133673, “Crystal structure of FMN-dependent nitroreductase from Escherichia coli B: a prodrug-activating enzyme” (J Med Chem, 2000)

Experiments:
[1] = molecular target: NAD(P)H dehydrogenase [quinone] 1 (Homo sapiens) (UniProt P15559); test: Catalytic constant determined to activate by DT diaphorase in human cell lines
Escherichia coli B = test: Catalytic constant determined to activate by FMN-dependent nitroreductase enzyme from Escherichia coli B (NTR)

Sequence of NAD(P)H dehydrogenase [quinone] 1 (Homo sapiens) (P15559 whole entry): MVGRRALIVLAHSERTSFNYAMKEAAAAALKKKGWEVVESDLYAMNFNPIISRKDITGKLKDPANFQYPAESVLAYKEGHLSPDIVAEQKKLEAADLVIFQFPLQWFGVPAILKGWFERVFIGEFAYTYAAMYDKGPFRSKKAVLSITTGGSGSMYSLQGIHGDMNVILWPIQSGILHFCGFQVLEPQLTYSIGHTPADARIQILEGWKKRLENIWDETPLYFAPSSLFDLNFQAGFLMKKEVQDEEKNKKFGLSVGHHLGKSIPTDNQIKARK

Row | SMILES | k cat [1] | k cat (Escherichia coli B)
1 | NC(=O)c1cc(N2CC2)c([N+](=O)[O-])cc1[N+](=O)[O-] | 0.0107 s⁻¹ | 6 s⁻¹
2 | NC(=O)c1cc(N(CCCl)CCCl)c([N+](=O)[O-])cc1[N+](=O)[O-] |  | 26.3 s⁻¹
